Source: US20210382058A1, “PATIENT SELECTION FOR TREATMENT OF MYC POSITIVE CANCERS WITH INDENOISOQUINOLINES” (Purdue Research Foundation, priority 2020, published 2021)
Like-named read-outs stand apart in the source and are kept apart here.

Experiments:
[1] = system: MYC protein expression in MCF-7 breast cancer cells; assay: Western blotting of MYC protein level in MCF-7 cells; format: cell-based, human; conditions: Homo sapiens, MCF7; western blotting, MCF-7 cells, 0.5, 1, 2, and 4 μM, 24 hours; read-out: MYC Inhibition
In short: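 MCF-7 cells were exposed to compounds at 0.5, 1, 2 and 4 μM for 24 hours at 37° C. MYC was detected by immunoblot with ECL, using rabbit anti-MYC (1:1000) and anti-GAPDH (1:2000) as loading control.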

[2] = system: NCI-60 cancer cell lines; assay: NCI-60 cancer cell line drug screen (GI50, MGM); format: cell-based, human; conditions: Homo sapiens; for GI50: read-out: Antiproliferative Activities [GI50 (μM)]
Description: Cancer cells were incubated with the test compounds at five concentrations ranging from 100 μM to 10 nM for 48 h. […] The approximate average of GI50 values across the entire panel of NCI-60 cancer cell lines for each compound was recorded as the MGM value.

[3] = biological target: T1, human topoisomerase I (Homo sapiens, UniProt P11387); conditions: relative topoisomerase I inhibition levels, previously determined, six levels (0 - 5, +++++ = 5); cited from earlier work
T1 sequence (P11387 1-765): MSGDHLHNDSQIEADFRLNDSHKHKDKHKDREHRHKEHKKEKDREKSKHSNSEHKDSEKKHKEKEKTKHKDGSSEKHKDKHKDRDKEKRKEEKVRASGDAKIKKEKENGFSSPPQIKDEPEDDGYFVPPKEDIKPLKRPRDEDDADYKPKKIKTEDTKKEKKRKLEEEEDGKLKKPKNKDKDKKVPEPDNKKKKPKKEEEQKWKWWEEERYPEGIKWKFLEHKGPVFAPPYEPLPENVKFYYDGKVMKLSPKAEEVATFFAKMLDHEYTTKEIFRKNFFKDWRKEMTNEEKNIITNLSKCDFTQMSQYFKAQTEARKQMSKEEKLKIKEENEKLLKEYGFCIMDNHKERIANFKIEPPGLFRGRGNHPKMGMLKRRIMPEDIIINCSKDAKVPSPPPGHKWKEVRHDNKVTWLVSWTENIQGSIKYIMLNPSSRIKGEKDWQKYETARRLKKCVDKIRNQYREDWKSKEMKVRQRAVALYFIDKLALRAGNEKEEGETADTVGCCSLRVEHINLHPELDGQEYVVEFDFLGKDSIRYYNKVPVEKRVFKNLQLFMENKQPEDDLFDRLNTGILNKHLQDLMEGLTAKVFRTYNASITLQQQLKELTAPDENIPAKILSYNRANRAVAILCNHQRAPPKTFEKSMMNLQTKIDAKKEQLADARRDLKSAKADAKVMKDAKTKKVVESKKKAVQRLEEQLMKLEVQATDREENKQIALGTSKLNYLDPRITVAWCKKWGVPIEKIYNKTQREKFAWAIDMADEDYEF

Work on COc1cc2c(cc1O)-c1c(c3ccc([N+](=O)[O-])cc3c(=O)n1CCCN)C2=O [Compound 38] yielded a minimal effective concentration [1] of 4 µM, a GI50 ([2]; 786-0, Renal Cancer, 786-0) of 0.34 µM and a GI50 ([2]; A498, Renal Cancer, A498) of 0.96 µM. The GI50 ([2]; A549, Non-Small Cell Lung Cancer, A549/ATCC) was 1.31 µM, the GI50 ([2]; ACHN, Renal Cancer, ACHN) was 0.28 µM and the GI50 ([2]; BT-549, Breast Cancer, BT-549) was 0.36 µM. The GI50 ([2]; CAKI-1, Renal Cancer, CAKI-1) was 0.29 µM, the GI50 ([2]; CCRF-CEM, Leukemia, CCRF-CEM) was 0.11 µM and the GI50 ([2]; COLO 205, Colon Cancer, COLO 205) was 0.69 µM. It also gave a GI50 ([2]; DU-145, Prostate Cancer, DU-145) of 0.43 µM, a GI50 ([2]; HCC 2998, Colon Cancer, HCC-2998) of 0.62 µM and a GI50 ([2]; HCT-15, Colon Cancer, HCT-15) of 1.49 µM. For the same compound, the GI50 ([2]; HCT-116, Colon Cancer, HCT-116) was 0.15 µM, the GI50 ([2]; HL-60, Leukemia, HL-60(TB)) was 1.48 µM and the GI50 ([2]; HOP-62, Non-Small Cell Lung Cancer, HOP-62) was 0.46 µM. It also gave a GI50 ([2]; HOP-92, Non-Small Cell Lung Cancer, HOP-92) of 1.34 µM, a GI50 ([2]; HT-29, Colon Cancer, HT29) of 0.48 µM and a GI50 ([2]; IGROV-1, Ovarian Cancer, IGROV1) of 1.24 µM. The GI50 ([2]; K562, Leukemia, K-562) was 0.77 µM, the GI50 ([2]; KM12, Colon Cancer, KM12) was 1.34 µM and the GI50 ([2]; LOX IMVI, Melanoma, LOX IMVI) was 0.3 µM. For the same compound, the GI50 ([2]; Leukemia, SR) was 0.04 µM, the GI50 ([2]; MCF7, Breast Cancer, MCF7) was 0.16 µM and the GI50 ([2]; MDA-MB-231, Breast Cancer, MDA-MB-231/ATCC) was 1.57 µM. It also gave a GI50 ([2]; MDA-MB-435, Melanoma, MDA-MB-435) of 1.3 µM, a GI50 ([2]; MDA-MB-468, Breast Cancer, MDA-MB-468) of 0.24 µM and a GI50 ([2]; MOLT-4, Leukemia, MOLT-4) of 0.15 µM. It also gave a GI50 ([2]; Malme-3M, Melanoma, MALME-3M) of 2.16 µM, a GI50 ([2]; Melanoma, M14) of 0.46 µM and a GI50 ([2]; NCI-H23, Non-Small Cell Lung Cancer, NCI-H23) of 0.38 µM. It also gave a GI50 ([2]; NCI-H226, Non-Small Cell Lung Cancer, NCI-H226) of 1.18 µM, a GI50 ([2]; NCI-H322M, Non-Small Cell Lung Cancer, NCI-H322M) of 1.39 µM and a GI50 ([2]; NCI-H460, Non-Small Cell Lung Cancer, NCI-H460) of 0.37 µM. For the same compound, the GI50 ([2]; NCI-H522, Non-Small Cell Lung Cancer, NCI-H522) was 0.78 µM, the GI50 ([2]; OVCAR-3, Ovarian Cancer, OVCAR-3) was 1.69 µM and the GI50 ([2]; OVCAR-4, Ovarian Cancer, OVCAR-4) was 1.11 µM. For the same compound, the GI50 ([2]; OVCAR-5, Ovarian Cancer, OVCAR-5) was 1.67 µM, the GI50 ([2]; OVCAR-8, Ovarian Cancer, OVCAR-8) was 1.01 µM and the GI50 ([2]; Ovarian Cancer, NCl/ADR-RES) was 2.55 µM. For the same compound, the GI50 ([2]; Prostate Cancer, PC-3) was 0.64 µM, the GI50 ([2]; RPMI-8226, Leukemia, RPMI-8226) was 1.02 µM and the GI50 ([2]; RXF 393, Renal Cancer, RXF 393) was 1.13 µM. The GI50 ([2]; Renal Cancer, U0-31) was 0.69 µM, the GI50 ([2]; SF-268, CNS Cancer, SF-268) was 0.55 µM and the GI50 ([2]; SF-295, CNS Cancer, SF-295) was 0.28 µM. The GI50 ([2]; SF-539, CNS Cancer, SF-539) was 0.67 µM, the GI50 ([2]; SK-MEL-2, Melanoma, SK-MEL-2) was 2.18 µM and the GI50 ([2]; SK-MEL-5, Melanoma, SK-MEL-5) was 1.26 µM. The GI50 ([2]; SK-MEL-28, Melanoma, SK-MEL-28) was 1.88 µM, the GI50 ([2]; SK-OV-3, Ovarian Cancer, SK-OV-3) was 1.15 µM and the GI50 ([2]; SN12C, Renal Cancer, SN12C) was 0.45 µM. It also gave a GI50 ([2]; SNB-19, CNS Cancer, SNB-19) of 1.08 µM, a GI50 ([2]; SNB-75, CNS Cancer, SNB-75) of 0.16 µM and a GI50 ([2]; SW-620, Colon Cancer, SW-620) of 0.34 µM. It also gave a GI50 ([2]; T47D, Breast Cancer, T-47D) of 0.7 µM, a GI50 ([2]; TK-10, Renal Cancer, TK-10) of 1.85 µM and a GI50 ([2]; U-251, CNS Cancer, U251) of 0.33 µM. It also gave a GI50 ([2]; UACC-62, Melanoma, UACC-62) of 0.95 µM, a GI50 ([2]; UACC-257, Melanoma, UACC-257) of 1.57 µM and a mean GI50 across NCI-60 panel (MGM) ([2]; average of GI50 values across the entire panel of NCI-60 cancer cell lines) of 660 nM. For the same compound, the “Top1 Inhibiton” value [3] was “++ (medium inhibition, ++, MYC expression inhibited at 2.0 μM, or no clear dose-dependent MYC inhibition)”.
